Experiment in all cases: DSF Tm panel
Holding throughout (type): binding
Common to all, as to conditions: 10 μM compound

One experiment addresses T1, BMX (BMXA) (Homo sapiens, UniProt P51813).
T1 construct: purchased in-house DSF kinase panel (SGC-style construct names; the trailing letter is the construct ID)

For the next experiment, the target named is T2, BRD4 (BRD4A) (Homo sapiens, UniProt O60885).
T2 construct: purchased in-house DSF kinase panel (SGC-style construct names; the trailing letter is the construct ID)

Another experiment concerns the target T3, CAMK1DA (Homo sapiens, UniProt Q8IU85).
T3 construct: purchased in-house DSF kinase panel (SGC-style construct names; the trailing letter is the construct ID)

The target in a further experiment is T4, CAMK4A (Homo sapiens, UniProt Q16566).
T4 construct: purchased in-house DSF kinase panel (SGC-style construct names; the trailing letter is the construct ID)
T4 sequence (Q16566 1-473): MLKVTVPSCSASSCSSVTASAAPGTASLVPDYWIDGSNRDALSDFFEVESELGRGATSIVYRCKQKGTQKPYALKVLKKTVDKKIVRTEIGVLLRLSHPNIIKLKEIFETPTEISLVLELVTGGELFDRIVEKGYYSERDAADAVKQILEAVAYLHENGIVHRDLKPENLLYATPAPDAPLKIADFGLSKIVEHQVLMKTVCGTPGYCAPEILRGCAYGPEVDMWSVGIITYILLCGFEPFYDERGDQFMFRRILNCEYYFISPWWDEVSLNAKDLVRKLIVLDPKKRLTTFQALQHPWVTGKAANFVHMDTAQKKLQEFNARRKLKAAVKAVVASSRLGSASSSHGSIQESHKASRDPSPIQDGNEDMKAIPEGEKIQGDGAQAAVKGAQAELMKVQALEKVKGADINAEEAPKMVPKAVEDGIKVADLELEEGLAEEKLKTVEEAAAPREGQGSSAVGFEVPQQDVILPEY

The next experiment concerns the target T5, CLK3A (Homo sapiens, UniProt P49761).
T5 construct: purchased in-house DSF kinase panel (SGC-style construct names; the trailing letter is the construct ID)

The next experiment concerns the target T6, EPHA5A (Homo sapiens, UniProt P54756).
T6 construct: purchased in-house DSF kinase panel (SGC-style construct names; the trailing letter is the construct ID)
T6 sequence (P54756 653-939): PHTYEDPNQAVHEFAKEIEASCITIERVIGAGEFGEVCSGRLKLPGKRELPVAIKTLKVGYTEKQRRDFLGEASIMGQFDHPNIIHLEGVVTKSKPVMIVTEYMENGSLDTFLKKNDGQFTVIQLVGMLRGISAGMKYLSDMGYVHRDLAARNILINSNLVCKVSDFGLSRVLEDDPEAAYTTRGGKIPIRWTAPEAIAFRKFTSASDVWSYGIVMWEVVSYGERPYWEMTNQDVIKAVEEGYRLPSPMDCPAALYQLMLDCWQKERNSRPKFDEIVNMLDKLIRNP

A further experiment addresses T7, GSK3BB (Homo sapiens, UniProt P49841).
T7 construct: purchased in-house DSF kinase panel (SGC-style construct names; the trailing letter is the construct ID)

For another experiment, the target named is T8, K2A2 (CSNK2A2A) (Homo sapiens, UniProt P19784).
T8 construct: purchased in-house DSF kinase panel (SGC-style construct names; the trailing letter is the construct ID)
T8 sequence (P19784 whole entry): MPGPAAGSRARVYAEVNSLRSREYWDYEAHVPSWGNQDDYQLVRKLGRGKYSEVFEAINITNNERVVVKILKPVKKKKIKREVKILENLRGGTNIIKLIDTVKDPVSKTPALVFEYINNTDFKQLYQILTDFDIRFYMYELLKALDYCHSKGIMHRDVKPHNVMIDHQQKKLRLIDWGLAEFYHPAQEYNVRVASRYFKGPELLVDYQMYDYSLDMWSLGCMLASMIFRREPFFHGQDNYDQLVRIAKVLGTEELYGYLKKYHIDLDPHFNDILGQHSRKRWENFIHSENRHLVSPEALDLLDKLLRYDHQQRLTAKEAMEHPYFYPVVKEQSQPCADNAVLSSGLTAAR

The next experiment concerns the target T9, MAP2K4A (Homo sapiens, UniProt P45985).
T9 construct: purchased in-house DSF kinase panel (SGC-style construct names; the trailing letter is the construct ID)
T9 sequence (P45985 102-367): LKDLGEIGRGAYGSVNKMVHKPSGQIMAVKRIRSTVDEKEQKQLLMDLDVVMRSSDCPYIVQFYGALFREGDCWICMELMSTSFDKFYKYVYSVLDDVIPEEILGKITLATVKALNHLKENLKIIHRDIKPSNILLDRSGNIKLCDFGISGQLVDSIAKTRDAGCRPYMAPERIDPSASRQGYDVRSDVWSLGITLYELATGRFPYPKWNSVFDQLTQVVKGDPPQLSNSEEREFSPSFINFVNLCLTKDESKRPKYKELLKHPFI

A further experiment deals with T10, PAK1A (Homo sapiens, UniProt Q13153).
T10 construct: purchased in-house DSF kinase panel (SGC-style construct names; the trailing letter is the construct ID)
T10 sequence (Q13153 249-545): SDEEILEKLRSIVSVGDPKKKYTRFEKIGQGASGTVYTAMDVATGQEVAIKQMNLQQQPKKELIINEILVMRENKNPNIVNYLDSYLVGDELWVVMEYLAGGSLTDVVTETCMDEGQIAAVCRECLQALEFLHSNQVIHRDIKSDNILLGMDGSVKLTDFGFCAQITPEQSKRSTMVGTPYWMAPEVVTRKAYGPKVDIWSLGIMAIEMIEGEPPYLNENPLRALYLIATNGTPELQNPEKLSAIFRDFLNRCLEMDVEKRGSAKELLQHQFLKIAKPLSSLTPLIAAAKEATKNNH

The next experiment deals with T11, PIM3A (Homo sapiens, UniProt Q86V86).
T11 construct: purchased in-house DSF kinase panel (SGC-style construct names; the trailing letter is the construct ID)

In a further experiment the target is T12, STK6A (Homo sapiens, UniProt O14965).
T12 construct: purchased in-house DSF kinase panel (SGC-style construct names; the trailing letter is the construct ID)
T12 sequence (O14965 122-403): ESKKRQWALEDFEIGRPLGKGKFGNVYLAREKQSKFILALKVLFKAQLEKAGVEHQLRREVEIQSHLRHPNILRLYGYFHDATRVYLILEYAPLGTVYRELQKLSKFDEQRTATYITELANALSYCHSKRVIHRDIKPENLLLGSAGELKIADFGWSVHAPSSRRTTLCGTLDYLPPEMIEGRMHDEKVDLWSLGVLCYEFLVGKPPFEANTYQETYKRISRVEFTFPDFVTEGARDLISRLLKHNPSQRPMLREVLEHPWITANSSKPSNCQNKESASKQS

The next experiment deals with T13, TTKA (Homo sapiens, UniProt P33981).
T13 construct: purchased in-house DSF kinase panel (SGC-style construct names; the trailing letter is the construct ID)
T13 sequence (P33981 519-808): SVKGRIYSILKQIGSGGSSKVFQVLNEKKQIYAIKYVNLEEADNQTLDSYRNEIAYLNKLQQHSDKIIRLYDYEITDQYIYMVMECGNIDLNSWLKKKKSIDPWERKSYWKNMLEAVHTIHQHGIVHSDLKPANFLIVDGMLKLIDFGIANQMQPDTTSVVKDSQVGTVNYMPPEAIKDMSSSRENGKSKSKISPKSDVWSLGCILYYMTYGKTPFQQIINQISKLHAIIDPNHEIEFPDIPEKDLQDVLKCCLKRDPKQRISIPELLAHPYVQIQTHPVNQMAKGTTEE

This passage reports ΔTm results from paper PMC12621043, “Un-LOK-ing a New Approach for Conformational Selective Targeting of STK10 (LOK)” (ACS Medicinal Chemistry Letters, 2025).

Molecules are shown by their SMILES.

T5 sequence (P49761 127-484): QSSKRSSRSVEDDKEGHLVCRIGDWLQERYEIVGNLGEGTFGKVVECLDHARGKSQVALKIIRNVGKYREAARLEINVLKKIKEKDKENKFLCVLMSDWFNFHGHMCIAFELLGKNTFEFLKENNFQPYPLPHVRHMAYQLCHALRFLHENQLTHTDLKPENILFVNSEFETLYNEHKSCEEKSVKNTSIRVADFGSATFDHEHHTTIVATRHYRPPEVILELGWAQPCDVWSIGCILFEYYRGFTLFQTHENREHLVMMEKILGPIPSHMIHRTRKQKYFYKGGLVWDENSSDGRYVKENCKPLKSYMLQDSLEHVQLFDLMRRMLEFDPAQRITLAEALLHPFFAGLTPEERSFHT
T1 sequence (P51813 411-675): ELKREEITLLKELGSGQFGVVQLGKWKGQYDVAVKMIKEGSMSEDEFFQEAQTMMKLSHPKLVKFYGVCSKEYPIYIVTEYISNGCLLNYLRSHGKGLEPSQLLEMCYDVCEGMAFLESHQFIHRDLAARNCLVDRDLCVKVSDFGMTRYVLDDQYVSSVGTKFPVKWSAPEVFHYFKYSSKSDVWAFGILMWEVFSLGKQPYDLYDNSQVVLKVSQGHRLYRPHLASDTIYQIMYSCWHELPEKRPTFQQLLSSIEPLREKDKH
T7 sequence (P49841 35-386): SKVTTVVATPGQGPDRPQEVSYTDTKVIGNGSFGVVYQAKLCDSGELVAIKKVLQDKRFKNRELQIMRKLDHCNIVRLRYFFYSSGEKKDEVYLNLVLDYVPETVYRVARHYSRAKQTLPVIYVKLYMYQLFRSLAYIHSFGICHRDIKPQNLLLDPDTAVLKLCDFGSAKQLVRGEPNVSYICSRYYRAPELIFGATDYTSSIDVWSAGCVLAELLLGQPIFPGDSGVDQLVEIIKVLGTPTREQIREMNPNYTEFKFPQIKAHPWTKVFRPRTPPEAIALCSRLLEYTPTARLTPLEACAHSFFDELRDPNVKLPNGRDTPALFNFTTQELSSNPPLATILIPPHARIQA
T3 sequence (Q8IU85 whole entry): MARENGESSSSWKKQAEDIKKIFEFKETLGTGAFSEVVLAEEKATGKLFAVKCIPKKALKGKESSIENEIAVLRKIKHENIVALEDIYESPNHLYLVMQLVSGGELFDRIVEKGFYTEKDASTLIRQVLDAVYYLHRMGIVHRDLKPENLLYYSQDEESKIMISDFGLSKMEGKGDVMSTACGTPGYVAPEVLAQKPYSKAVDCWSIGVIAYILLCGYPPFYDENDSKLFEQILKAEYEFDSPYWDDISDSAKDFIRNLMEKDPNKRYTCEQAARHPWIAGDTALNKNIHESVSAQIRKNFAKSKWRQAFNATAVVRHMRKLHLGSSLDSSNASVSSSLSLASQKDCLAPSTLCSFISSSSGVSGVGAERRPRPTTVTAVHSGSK

As for `O=C(NCc1ccc(C(F)(F)F)cc1)Nc1ccc2cc1OCCOCCNc1ccn3ncc-2c3n1` [compound 28], the shift in melting temperature (ΔTm) at 10 µM was 2.7 °C at BMX (BMXA); 2.1 °C on BRD4 (BRD4A); 2.1 °C on CAMK1DA; 1 °C on CAMK4A; 0.4 °C at CLK3A; 1.9 °C at EPHA5A. Besides, the ΔTm at 10 µM on GSK3BB was determined as 0.2 °C; on K2A2 (CSNK2A2A), 0.5 °C; at MAP2K4A, 5 °C; at PAK1A it was 1.8 °C; at PIM3A, 4.3 °C; at STK6A, 7.6 °C. Further, on TTKA, the thermal shift (ΔTm) at 10 µM stood at 3.1 °C.

`COc1ccccc1CNC(=O)Nc1ccc2cc1OCCOCCNc1ccn3ncc-2c3n1` [compound 29]: the ΔTm at 10 µM is -0.1 °C on BMX (BMXA); 0.3 °C at BRD4 (BRD4A); 0.4 °C at CAMK1DA; 0.6 °C at CAMK4A; 0.2 °C on CLK3A; 0.6 °C at EPHA5A. Further, the thermal shift (ΔTm) at 10 µM at GSK3BB is 1.2 °C; on K2A2 (CSNK2A2A) it was 0.3 °C; on MAP2K4A, 2.8 °C; at PAK1A, 0.1 °C; on PIM3A, 3.9 °C; at STK6A, 5.6 °C. The ΔTm at 10 µM on TTKA was 1.4 °C.

On to `COc1cccc(CNC(=O)Nc2ccc3cc2OCCOCCNc2ccn4ncc-3c4n2)c1` [compound 30], for which the ΔTm at 10 µM on BMX (BMXA) was found to be 0.4 °C; on BRD4 (BRD4A) it was 0.1 °C; on CAMK1DA, 0.4 °C; at CAMK4A it was 0.8 °C; on CLK3A, 0.2 °C; on EPHA5A it was 0.7 °C. The ΔTm at 10 µM was 1.3 °C at GSK3BB; 0.8 °C on K2A2 (CSNK2A2A); 3.2 °C on MAP2K4A; 0.2 °C on PAK1A; 4.1 °C at PIM3A; 7.4 °C at STK6A. Further, the ΔTm at 10 µM on TTKA came to 1.6 °C.

For `COc1ccc(CNC(=O)Nc2ccc3cc2OCCOCCNc2ccn4ncc-3c4n2)cc1` [compound 31], the ΔTm at 10 µM at BMX (BMXA) was 1.4 °C; on BRD4 (BRD4A), 0.6 °C; on CAMK1DA, 1.2 °C; at CAMK4A it was 1.1 °C; at CLK3A, 0 °C; at EPHA5A, 1.2 °C. Further, the ΔTm at 10 µM on GSK3BB stood at 1 °C; on K2A2 (CSNK2A2A), 2.5 °C; at MAP2K4A, 4.3 °C; on PAK1A, 0.5 °C; on PIM3A, 4.9 °C; on STK6A, 8 °C. In addition, the ΔTm at 10 µM on TTKA turned out to be 1.8 °C.

Take `COc1ccc(CNC(=O)Nc2ccc3cc2OCCOCCNc2ccn4ncc-3c4n2)cc1F` [compound 32]: the ΔTm at 10 µM stood at 1.1 °C on BMX (BMXA); 1.2 °C on BRD4 (BRD4A); 1.4 °C on CAMK1DA; 0.9 °C at CAMK4A; 0.2 °C at CLK3A; 1.2 °C on EPHA5A. The thermal shift (ΔTm) at 10 µM is 0.6 °C on GSK3BB; 2.2 °C at K2A2 (CSNK2A2A); 4 °C on MAP2K4A; 1 °C at PAK1A; -4.8 °C at PIM3A; 7.6 °C on STK6A. Besides, the thermal shift (ΔTm) at 10 µM on TTKA came to 2.4 °C.

As to `COc1cc(CNC(=O)Nc2ccc3cc2OCCOCCNc2ccn4ncc-3c4n2)ccc1F` [compound 33], the shift in melting temperature (ΔTm) at 10 µM stood at 0.3 °C at BMX (BMXA); 0.7 °C on BRD4 (BRD4A); 1.1 °C at CAMK1DA; 1 °C on CAMK4A; 0.5 °C on CLK3A; 1.4 °C at EPHA5A. The shift in melting temperature (ΔTm) at 10 µM turned out to be 1.6 °C at GSK3BB; 1.7 °C on K2A2 (CSNK2A2A); 3.6 °C at MAP2K4A; 0.5 °C on PAK1A; 5.1 °C at PIM3A; 9.9 °C at STK6A. For the same compound, on TTKA, the ΔTm at 10 µM amounted to 2 °C.

Regarding `C[C@H](NC(=O)Nc1ccc2cc1OCCOCCNc1ccn3ncc-2c3n1)c1ccccc1` [compound 34], the ΔTm at 10 µM on BMX (BMXA) is 0.1 °C; at BRD4 (BRD4A) it was -0.1 °C; at CAMK1DA it was 0.8 °C; at CAMK4A it was 0.6 °C; at CLK3A, 0 °C; at EPHA5A, 1 °C. The ΔTm at 10 µM was determined as 1.1 °C on GSK3BB; 1.2 °C on K2A2 (CSNK2A2A); 3.3 °C on MAP2K4A; 0.3 °C at PAK1A; 4.4 °C at PIM3A; 7.7 °C at STK6A. On TTKA, the ΔTm at 10 µM worked out at 1.8 °C.

For `CN1CCN(C(=O)Nc2ccc3cc2OCCOCCNc2ccn4ncc-3c4n2)CC1` [compound 35], the thermal shift (ΔTm) at 10 µM on BMX (BMXA) was 0.3 °C; at BRD4 (BRD4A) it was -0.4 °C; on CAMK1DA, -1.2 °C; at CAMK4A, 0 °C; on CLK3A, 0.7 °C; at EPHA5A it was -0.5 °C. The ΔTm at 10 µM at GSK3BB is 1.7 °C; at K2A2 (CSNK2A2A), 3.6 °C; at MAP2K4A, 1.8 °C; at PAK1A, -0.1 °C; at PIM3A, 1.6 °C; at STK6A, 2.4 °C. For the same compound, the thermal shift (ΔTm) at 10 µM at TTKA is 0.3 °C.

A word on the ΔTm: it is the change in melting temperature against a reference sample.
